This note sets out measurements from PubChem BioAssay AID651717 (Broad Institute, 2012).

This assay deals with mESC Bmi1-luciferase reporter, firefly/renilla ratio, 24 h. Description: Bmi1-luciferase reporter activators in mESC, dose response, esBAF inhibitor project, mouse embryonic stem cells, cherry-pick (AID 651717).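 Further: luciferase knocked into Bmi1 locus with EF-1a renilla as cell number control; rising ratio signals esBAF inhibition which derepresses Bmi1.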 In general terms: In a reporter assay the amount or activity of a reporter protein is the signal.
Consider `CC(C)(C)c1ccc(C(=O)c2cn[nH]c2-c2ccccc2O)cc1`, for which the AC40 was 7.24 µM. To `CCC1CCCCN1C(=O)c1ccc2nc(Cc3ccc(OC)cc3)oc2c1` (stereo unspecified) belongs 3.04 µM; to `Oc1ccc(/C=N/Nc2nc(-c3cccnc3)nc3ccccc23)c(O)c1`, 11.2 µM. Take `O=C(Nc1cccc(F)c1)c1c(O)c2ccccc2[nH]c1=O`: the AC40 was 1.29 µM. To `Cc1ccc(NC(=O)C2CCCN(C(=O)c3ccc(Cl)cc3)C2)cc1C` (stereo unspecified) belongs 6.09 µM; to `COc1ccc(/C=N/OCc2ccccc2C#N)c(OC)c1`, 6.27 µM. To `Cn1ccc2c(-c3ccc(C(=O)O)cc3)cc3c(c21)C1CCC3C1` (stereo unspecified) belongs 4.09 µM. For `COc1ccc(-c2cc(C(=O)N3CCN(c4ccccc4O)CC3)c3ccccc3n2)cc1`, the AC40 was 3.16 µM. To `Cc1nc(C)c(-c2csc(Nc3ccc(Cl)cn3)n2)s1` belongs 8.77 µM; to `CO[C@H]1CN(C)C(=O)c2cc(NC(=O)Nc3ccc4c(c3)OCO4)ccc2OC[C@H](C)NC[C@H]1C`, 3.29 µM. The figure for `C[C@H]1CN([C@@H](C)CO)C(=O)CCCn2nncc2CO[C@@H]1CN(C)C(=O)Nc1ccc2c(c1)OCCO2` is 29.2 µM. To `COc1ccc(CNc2nc3ccccc3s2)cc1OC` belongs 3.7 µM; to `COc1ccc(Cl)cc1C(=O)Nc1ccc(Br)c(C)n1`, 6.83 µM; to `COc1ccccc1C(=O)Oc1ccccc1C(=O)Nc1ccccc1`, 5.18 µM. As for `Cc1ccc(SCCN2CCC(C)CCC2=O)cc1` (stereo unspecified), the AC40 is 2.74 µM. Take `COC(=O)c1ccc(COC(=O)CNC(=O)c2ccc(OC)cc2)cc1`: the AC40 was 6.87 µM. For the molecule `N/C(=N\OC(=O)CC1CCCCC1)c1ccccn1`, the AC40 was 3.84 µM. In the case of `Cc1nc(NCc2ccccc2)sc1C(=O)Nc1ccccc1`, the AC40 is 8.44 µM.

With `Nc1cc2c3ccccc3ccc2c2ccccc12`, the AC40 is 2.47 µM.

Regarding `COc1cc(/C=C/c2nc3ccccc3c(=O)[nH]2)ccc1OC(F)F`, the AC40 is 1.6 µM. To `O=C(c1cccs1)N(C(=O)c1cccs1)c1ccc(Br)cn1` belongs 1.09 µM; to `Fc1ccc2cc(-c3ccsc3)ncc2c1`, 3.16 µM.

`CC(=O)c1ccc(OCc2ccccc2)c(C)c1O`: the AC40 is 9.35 µM. To `COc1ccccc1C=Cc1ccnc2ccccc12` belongs 7.65 µM; to `COc1ccc(NC(=O)c2cc(-c3cccs3)on2)cc1`, 3.06 µM.

On to `Cc1ccc(NC(=O)c2ccnc(C(C)(C)C)c2)cc1`, for which the AC40 is 1.95 µM. As for `O=C1NC(=Nc2ccccc2)S/C1=C\c1cccn1-c1ccccc1`, the AC40 is 2.43 µM.

For the molecule `CCn1cnc2cc(NCc3ccc(OC)cc3)ccc21`, the AC40 was 0.992 µM. For `COc1cccc(OCc2cc(C(=O)N(C)C3CCCCC3)no2)c1`, the AC40 is 4.53 µM. The figure for `CCC(C)NC(=O)c1cc(-c2ccccc2O)on1` (stereo unspecified) is 11.1 µM; for `c1ccc2cc(C3CCCCC3)ncc2c1` it is 4.49 µM; for `CC(=O)N1CC2(CC(c3ccccc3F)=NO2)CN1c1ccc(Cl)cc1` (stereo unspecified) it is 19.9 µM.

Turning to `Cc1ccnc(NC(=O)c2ccc3c(c2)C(=O)N(CC(C)C)C3=O)c1`, the AC40 is 2.87 µM. The figure for `CC(C)C(=O)N1CCN(c2nc3ccc(Cl)cc3s2)CC1` is 3.33 µM.

With `Cc1ccc(OCc2cc(C(=O)N3CCC(c4ccccc4Cl)C3)no2)cc1C` (stereo unspecified), the AC40 is 7.33 µM. Turning to `COc1ccc(OCc2cc(C(=O)NC(C)c3nc(C)cs3)no2)c(Cl)c1` (stereo unspecified), the AC40 is 10.4 µM. The figure for `CC(=O)Nc1ccc(-c2nnc(SCC(=O)Nc3ccc4c(c3)oc3ccccc34)n2C)cc1` is 6.97 µM; for `Cc1cccc(COc2ccc(/C=N/NC(=O)c3nnn(-c4nonc4N)c3CN3CCCCC3)cc2)c1` it is 34.2 µM.

On to `O=C(C[C@@H]1CC[C@@H]2[C@H](COC[C@H](O)CN2C(=O)Nc2ccc(Cl)cc2)O1)NCC1CCCCC1`, for which the AC40 is 2.62 µM.

`O=C(NCCCc1ccccc1)c1ccccc1O`: the AC40 was 10.7 µM. To `Oc1cccc(/C=N/N2CCCCC2)c1O` belongs 3.47 µM; to `COc1ccc([C@@H](C)NC(=O)c2ccc3oc(C(C)C)nc3c2)cc1`, 9.81 µM. To `c1ccc(-c2ccc(-c3ccccc3)[nH]2)cc1` belongs 1.44 µM; to `O=c1c2ccccc2oc2cc(-c3ccc4cc[nH]c4c3)ccc12`, 1.46 µM; to `O=c1c(-c2nc3ccccc3s2)cccn1Cc1ccc(Cl)cc1`, 3.09 µM. The figure for `CN(Cc1cccnc1)C(=O)c1cc(COc2ccc3c(c2)CCCC3)on1` is 0.9 µM. Consider `CC1(C)C=Cc2cc(-c3coc4cc(O)cc(O)c4c3=O)cc(O)c2O1`, for which the AC40 was 4.93 µM. To `C(=Cc1cnnc2ccccc12)c1ccccc1` belongs 1.23 µM; to `CC(=O)Nc1ccc2nc(C)n(Cc3ccc(Cl)cc3)c(=O)c2c1`, 4.21 µM; to `c1ccc(-n2nnc3ccccc32)nc1`, 11.2 µM. To `Cc1ccc(NC(=O)C(=O)Nc2ccc(C)cn2)nc1` belongs 0.497 µM; to `CO[C@@H]1CN(C)C(=O)c2cc(NC(=O)Nc3ccc4c(c3)OCO4)ccc2OC[C@@H](C)NC[C@@H]1C`, 3.02 µM. `COc1cc(N=Nc2ccc(C(=O)N(C)C)cc2)c(C)cc1N`: the AC40 is 8.86 µM. To `Cc1ccc(O)c(N=Cc2ccc(C)s2)c1` belongs 25.8 µM; to `Cc1cccc(NC(=O)C2C3CCCCC32)c1` (stereo unspecified), 4.55 µM.

Turning to `C=CCNc1nc(Cl)nc(Nc2ccccc2)n1`, the AC40 is 0.936 µM. In the case of `COc1ccc(Cc2nc3ccc(C(=O)NCCCSC)cc3o2)cc1OC`, the AC40 was 4.92 µM. The figure for `Cc1ccc(Nc2ncnc3sc(C)c(C)c23)cc1` is 3.76 µM; for `Cc1ccc(NC(=O)O/N=C/c2ccc(F)cc2)cc1` it is 8.83 µM; for `O=C(NCCc1ccc(F)cc1)c1ccc2c(=O)n3c(nc2c1)CCC3` it is 5.89 µM. Turning to `O=C(c1ccc(Cl)cc1)c1cnc(-c2ccc(Cl)cc2)s1`, the AC40 is 2.84 µM. Regarding `CCCCN(C(=O)CSc1nnc(Nc2ccc(C)c(C)c2)s1)c1c(N)n(Cc2ccccc2)c(=O)[nH]c1=O`, the AC40 was 12.4 µM. To `O=C(c1cc2ccccc2oc1=O)N(Cc1cccs1)C1CCS(=O)(=O)C1` (stereo unspecified) belongs 3.94 µM; to `O=C(Nc1ccc2oc(-c3ccccc3)nc2c1)c1cccs1`, 1.58 µM. For the molecule `O=c1sc(N2CCN(c3ccc(F)cc3)CC2)nc2ccsc12`, the AC40 was 1.76 µM. The figure for `CC(=O)c1ccc(OCc2cc(C(=O)N(C)Cc3cc(C)no3)no2)cc1` is 7.14 µM; for `COc1ccc(Cl)c(-c2cc(C(=O)Nc3ccccc3)[nH]n2)c1` it is 0.423 µM; for `COc1ccc(-c2cc(C(=O)N3CCCC3)no2)cc1OC` it is 7.36 µM.

Turning to `COc1ccc(N=Cc2c(O)[nH]c3ccccc23)cc1OC`, the AC40 was 3.05 µM. To `CN(C)c1ccc(N=Nc2ccccc2C(=O)OCC(=O)Nc2ccccc2C(F)(F)F)cc1` belongs 4.61 µM. To `Cc1ccc(Cn2cc(-c3ccccc3)nn2)cc1` belongs 7.62 µM; to `COc1cc2c(cc1NC(=O)C(C)OC(=O)/C=C/c1ccc(OC(F)F)cc1)oc1ccccc12` (stereo unspecified), 3.91 µM; to `FC(F)Oc1ccccc1/C=N/Nc1nc2ccccc2o1`, 3.81 µM. For `Cc1cc(C)c2nc(-c3ccccc3)ccc2c1`, the AC40 was 1.5 µM. As to `CCN(CC)S(=O)(=O)c1cccc(-c2cn3cc(C)ccc3n2)c1`, the AC40 was 4 µM. To `O=c1/c(=C\c2cccnc2)sc2nc3ccccc3n12` belongs 9.85 µM; to `CC(=O)Nc1cc2c3c(cccc3c1)-c1ccccc1-2`, 5.23 µM; to `NC(=O)c1sc2nc(-c3cccs3)ccc2c1N`, 2.75 µM. The figure for `COc1ccc(NC(=O)Nc2cc(C)ccc2F)cc1` is 0.738 µM. The figure for `CCN(C(=O)c1cc2c(=O)n3cccc(C)c3nc2s1)C1CCCCC1` is 25.1 µM; for `COc1cccc(OCc2cc(C(=O)N3CCN(C(C)=O)CC3)no2)c1` it is 3.15 µM. `Cc1ccnc(NC(=O)CCCc2ccccc2)c1`: the AC40 is 5.74 µM. For the molecule `COc1ccc2nc3ccccc3[n+]([O-])c2c1`, the AC40 was 2.1 µM. To `CCCC(=O)Nc1sc2c(c1C#N)CCCC2` belongs 19 µM.

Turning to `C/C(=N\O)c1ccc2c3ccccc3n(C)c2c1`, the AC40 was 3.32 µM. To `CN(C)c1ccc(C=NN2CCCCCC2)cc1` belongs less than 0.26 µM; to `CC(=O)Oc1ccc2cc(-c3ccccc3)c(=O)oc2c1`, 4.46 µM.

On to `Clc1ccc(C=NN2CCCCCC2)cc1`, for which the AC40 was 0.983 µM. To `COc1ccc(OCc2cc(C(=O)NC(C)c3csc(C)n3)no2)c(Cl)c1` (stereo unspecified) belongs 4.18 µM; to `c1ccc(Cn2c(-c3cncs3)nc3ccccc32)cc1`, 11.8 µM; to `Cc1cc(N2CCOCC2)nc2ccc(NC(=O)CCC(=O)N3CCN(c4ccccc4F)CC3)cc12`, 4.59 µM.

Take `CN(C)c1ccc(N=Cc2nc(-c3ccccc3)oc2OC(=O)c2cccc(Br)c2)cc1`: the AC40 is 1.2 µM. The figure for `Nc1cc2c(cc1Br)-c1ccccc1C2=NO` is 9.76 µM; for `O=C(Nc1ccc(N2CCCC2)cc1)c1cccc(Cl)c1Cl` it is 28.2 µM.

As to `O=C(O)c1ccc(N/N=C/c2cccc3nccnc23)cc1`, the AC40 was 4.04 µM. Regarding `COc1ccc(OCc2cc(C(=O)N(Cc3nccn3C)C(C)C)no2)c2ccccc12`, the AC40 was 3.93 µM.

`Cc1ccc(C)c(NC(=O)c2cc(-c3ccccc3O)n[nH]2)c1`: the AC40 was 11.5 µM. The figure for `Nc1nc(SCc2ccccc2)sc1C(=O)N1CCCCC1` is 2.53 µM; for `Cc1ccc(C)c(N2CCN(C(=O)CCc3nc(-c4ccccc4Br)no3)CC2)c1` it is 15.8 µM. Regarding `c1ccc(Nc2nc(-c3ccncc3)cs2)cc1`, the AC40 was 2.71 µM. To `COc1ccc(-n2nc(C(=O)NCC(=O)N3CCN(c4ccccc4F)CC3)c3ccccc3c2=O)cc1` belongs 1.22 µM; to `OC(c1cccc(F)c1)c1ncc(-c2ccc3ccccc3c2)[nH]1` (stereo unspecified), 9.76 µM. To `O=C(Nc1ccc2ccccc2c1)c1cccc2ccccc12` belongs 0.829 µM; to `c1ccc(-c2cnnc(N3CCCCC3)n2)cc1`, 1.99 µM; to `O=C(Nc1ccc(F)cc1)c1ccccc1F`, 5.97 µM. To `CC(C)c1ccc(C(O)c2cnc(C(C)C)n2C)cc1` (stereo unspecified) belongs 4.11 µM.
